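Following 48 hours of exposure in 96-well plates, responses at five concentrations were used to interpolate endpoints linearly. GI50 marks 50% less growth.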 The source made the active and inactive calls. Rule as the data show it: active = GI50 up to about 1.1 µM and inactive = higher.
Experiments:
Test in all cases: DTP human tumour cell line panel, 48 h
[1] = test system: A549
[2] = test system: NCI-H226
[3] = test system: COLO 205
[4] = test system: SNB-19
[5] = test system: SNB-75
[6] = test system: Malme-3M
[7] = test system: M14
[8] = test system: NCI-H460
[9] = test system: IGROV-1
[10] = test system: OVCAR-4
[11] = test system: DU-145
[12] = test system: SF-268
[13] = test system: SF-539
[14] = test system: KM12
[15] = test system: SK-OV-3
[16] = test system: LOX IMVI
[17] = test system: HT-29
[18] = test system: OVCAR-3
[19] = test system: SK-MEL-5
[20] = test system: SR
[21] = test system: OVCAR-5
[22] = test system: EKVX
[23] = test system: HCT-15
[24] = test system: BT-549
[25] = test system: K562
[26] = test system: UO-31
[27] = test system: UACC-62
[28] = test system: Hs-578T
[29] = test system: HCT-116
[30] = test system: MCF7
[31] = test system: PC-3
[32] = test system: MDA-N
[33] = test system: NCI-H23
[34] = test system: U-251
[35] = test system: 786-0
[36] = test system: SK-MEL-2
[37] = test system: MDA-MB-435
[38] = test system: RPMI-8226
[39] = test system: SW-620
[40] = test system: TK-10
[41] = test system: SN12C
[42] = test system: MDA-MB-231
[43] = test system: HOP-62
[44] = test system: ACHN
[45] = test system: NCI/ADR-RES
[46] = test system: OVCAR-8
[47] = test system: SF-295
[48] = test system: MOLT-4
[49] = test system: SK-MEL-28
[50] = test system: HCC 2998
[51] = test system: UACC-257
[52] = test system: T47D
[53] = test system: CAKI-1
[54] = test system: HL-60
[55] = test system: HOP-92
[56] = test system: CCRF-CEM
[57] = test system: NCI-H522
[58] = test system: RXF 393

Compound: c1cc(CN2CCNCCNCCNCC2)cc(CN2CCNCCNCCNCC2)c1
- GI50 [1]: > 100 µM (inactive)
- GI50 [2]: > 100 µM (inactive)
- GI50 [3]: > 100 µM (inactive)
- GI50 [4]: > 100 µM (inactive)
- GI50 [5]: > 100 µM (inactive)
- GI50 [6]: > 100 µM (inactive)
- GI50 [7]: > 100 µM (inactive)
- GI50 [8]: > 100 µM (inactive)
- GI50 [9]: > 100 µM (inactive)
- GI50 [10]: > 100 µM (inactive)
- GI50 [11]: > 100 µM (inactive)
- GI50 [12]: > 100 µM (inactive)
- GI50 [13]: > 100 µM (inactive)
- GI50 [14]: > 100 µM (inactive)
- GI50 [15]: > 100 µM (inactive)
- GI50 [16]: > 100 µM (inactive)
- GI50 [17]: > 100 µM (inactive)
- GI50 [18]: > 100 µM (inactive)
- GI50 [19]: > 100 µM (inactive)
- GI50 [20]: > 100 µM (inactive)
- GI50 [21]: > 100 µM (inactive)
- GI50 [22]: > 100 µM (inactive)
- GI50 [23]: > 10 µM
- GI50 [24]: > 100 µM (inactive)
- GI50 [25]: > 100 µM (inactive)
- GI50 [26]: > 100 µM (inactive)
- GI50 [27]: > 100 µM (inactive)
- GI50 [28]: > 100 µM (inactive)
- GI50 [29]: > 100 µM (inactive)
- GI50 [30]: > 100 µM (inactive)
- GI50 [31]: > 100 µM (inactive)
- GI50 [32]: > 100 µM (inactive)
- GI50 [33]: > 100 µM (inactive)
- GI50 [34]: > 100 µM (inactive)
- GI50 [35]: > 100 µM (inactive)
- GI50 [36]: > 100 µM (inactive)
- GI50 [37]: > 100 µM (inactive)
- GI50 [38]: > 100 µM (inactive)
- GI50 [39]: > 100 µM (inactive)
- GI50 [40]: > 100 µM (inactive)
- GI50 [41]: > 100 µM (inactive)
- GI50 [42]: > 100 µM (inactive)
- GI50 [43]: > 100 µM (inactive)
- GI50 [44]: > 100 µM (inactive)
- GI50 [45]: > 100 µM (inactive)
- GI50 [46]: > 100 µM (inactive)
- GI50 [47]: > 100 µM (inactive)
- GI50 [48]: > 100 µM (inactive)
- GI50 [49]: > 100 µM (inactive)
- GI50 [50]: > 100 µM (inactive)
- GI50 [51]: > 100 µM (inactive)
- GI50 [52]: > 100 µM (inactive)

Compound: Cc1ccc2nc(-c3ccc(N4C(=O)C(Cl)C4c4ccc(Cl)cc4)cc3)sc2c1 (centres undefined)
- GI50 [1]: 17.3 µM (inactive)
- GI50 [2]: 13.8 µM (inactive)
- GI50 [3]: 14.6 µM (inactive)
- GI50 [4]: 33.1 µM (inactive)
- GI50 [6]: 28.8 µM (inactive)
- GI50 [7]: 21.4 µM (inactive)
- GI50 [8]: 21.9 µM (inactive)
- GI50 [10]: 1.95 µM (inactive)
- GI50 [11]: 27.2 µM (inactive)
- GI50 [12]: 22.8 µM (inactive)
- GI50 [13]: 17.5 µM (inactive)
- GI50 [14]: 16.8 µM (inactive)
- GI50 [15]: 12.7 µM (inactive)
- GI50 [16]: 5.35 µM (inactive)
- GI50 [53]: 15.5 µM (inactive)
- GI50 [17]: 1.95 µM (inactive)
- GI50 [18]: 16.3 µM (inactive)
- GI50 [19]: 14.2 µM (inactive)
- GI50 [20]: 24.2 µM (inactive)
- GI50 [21]: 18.4 µM (inactive)
- GI50 [22]: 2.62 µM (inactive)
- GI50 [23]: 27.3 µM
- GI50 [24]: 36.7 µM (inactive)
- GI50 [25]: 24.5 µM (inactive)
- GI50 [26]: 21.4 µM (inactive)
- GI50 [27]: 15.3 µM (inactive)
- GI50 [28]: 23.3 µM (inactive)
- GI50 [29]: 21.6 µM (inactive)
- GI50 [54]: 29.9 µM (inactive)
- GI50 [30]: 14.6 µM (inactive)
- GI50 [31]: 10.5 µM (inactive)
- GI50 [32]: 17.9 µM (inactive)
- GI50 [33]: 21.6 µM (inactive)
- GI50 [34]: 19.2 µM (inactive)
- GI50 [35]: 21.9 µM (inactive)
- GI50 [37]: 17.4 µM (inactive)
- GI50 [38]: 11.5 µM (inactive)
- GI50 [39]: 21.5 µM (inactive)
- GI50 [40]: 16.4 µM (inactive)
- GI50 [41]: 19.9 µM (inactive)
- GI50 [42]: 13.5 µM (inactive)
- GI50 [43]: 20.6 µM (inactive)
- GI50 [44]: 22.4 µM (inactive)
- GI50 [55]: 0.137 µM (active)
- GI50 [45]: 18.5 µM (inactive)
- GI50 [46]: 28.5 µM (inactive)
- GI50 [47]: 15.1 µM (inactive)
- GI50 [56]: 7.94 µM (inactive)
- GI50 [49]: 8.75 µM (inactive)
- GI50 [51]: 25.1 µM (inactive)
- GI50 [52]: 27.8 µM (inactive)

Compound: CCOC(=O)c1c(O)nc2cccc3c2c1-c1cccnc1S3
- GI50 [1]: 18.9 µM (inactive)
- GI50 [2]: 19.9 µM (inactive)
- GI50 [3]: 35.9 µM (inactive)
- GI50 [4]: 33.8 µM (inactive)
- GI50 [5]: 21.2 µM (inactive)
- GI50 [6]: 34 µM (inactive)
- GI50 [7]: 32.7 µM (inactive)
- GI50 [8]: 24.4 µM (inactive)
- GI50 [9]: 16.9 µM (inactive)
- GI50 [10]: 33.1 µM (inactive)
- GI50 [11]: 44.6 µM (inactive)
- GI50 [12]: 28.8 µM (inactive)
- GI50 [13]: 27.6 µM (inactive)
- GI50 [15]: 30.9 µM (inactive)
- GI50 [16]: 25.1 µM (inactive)
- GI50 [53]: 16.7 µM (inactive)
- GI50 [17]: 29.4 µM (inactive)
- GI50 [18]: 28.6 µM (inactive)
- GI50 [19]: 11.7 µM (inactive)
- GI50 [20]: 28.6 µM (inactive)
- GI50 [21]: 24 µM (inactive)
- GI50 [22]: 30.3 µM (inactive)
- GI50 [23]: 35.8 µM
- GI50 [24]: 22.4 µM (inactive)
- GI50 [25]: 32.1 µM (inactive)
- GI50 [26]: 23 µM (inactive)
- GI50 [27]: 16.3 µM (inactive)
- GI50 [28]: 22.4 µM (inactive)
- GI50 [29]: 44.5 µM (inactive)
- GI50 [54]: 20.3 µM (inactive)
- GI50 [30]: 1.14 µM (inactive)
- GI50 [31]: 15.8 µM (inactive)
- GI50 [32]: 39 µM (inactive)
- GI50 [33]: 21 µM (inactive)
- GI50 [34]: 21.3 µM (inactive)
- GI50 [35]: 36 µM (inactive)
- GI50 [36]: 56.1 µM (inactive)
- GI50 [37]: 28.8 µM (inactive)
- GI50 [38]: 17.5 µM (inactive)
- GI50 [39]: 55.3 µM (inactive)
- GI50 [57]: 25.8 µM (inactive)
- GI50 [40]: 44.7 µM (inactive)
- GI50 [41]: 39.9 µM (inactive)
- GI50 [42]: 39 µM (inactive)
- GI50 [43]: 25.5 µM (inactive)
- GI50 [44]: 28.8 µM (inactive)
- GI50 [45]: 33.1 µM (inactive)
- GI50 [46]: 35.5 µM (inactive)
- GI50 [58]: 11 µM (inactive)
- GI50 [47]: 23.7 µM (inactive)
- GI50 [56]: 24 µM (inactive)
- GI50 [48]: 16.9 µM (inactive)
- GI50 [49]: 30.8 µM (inactive)
- GI50 [50]: 50.2 µM (inactive)
- GI50 [51]: 37.6 µM (inactive)
- GI50 [52]: 9.86 µM (inactive)

— ChEMBL document CHEMBL1201862, “PubChem BioAssay data set” (2004)
